Experimental findings from patent US4499269A, “Fused 1,3,5-triazines” (Fisons plc, priority 1982, dated 1985) are described below.

For assay [1], the system named is delayed hypersensitivity reaction to PPD. The assay is described as follows: Delayed hypersensitivity reaction to PPD in guinea pigs, topical under occlusion (Example C). The assay is classed as in vivo. As to conditions: for % Inhibition 24h after challenge: Diameter of erythema / % Inhibition 24h after challenge: Erythema score / % Inhibition 24h after challenge: Increase in skin thickness: topical under occlusion, n=6. The procedure:
Male guinea pigs weighing 250-300 g were sensitised by a subcutaneous injection of Freunds Complete Adjuvant (Difco) in saline. Fourteen days following sensitisation animals were challenged intradermally into a shaved flank with 50 μg of purified protein derivative PPD (in 0.1 ml of saline). Changes in skin thickness were determined immediately before and 24 h and 48 h after antigen challenge. In addition, the diameter of reaction and a semiquantitative estimate of the degree of erythema were determined at 24 h and 48 h.
The compound of Example 1 was applied topically under an occlusive dressing. This consisted of adding a solution of the compound in dimethylacetamide (0.3 ml) to a filter paper square (4×4 cm) backed by surgical tape placed on the challenge site and held in place by adhesive bandage encircling the torso of the animal. The dressing was applied 10 min after challenge and removed 24 h later. Control animals received dimethylacetamide alone to the challenge site.
The effect of the compound of Example 1 applied under occlusion, with antigen challenge, on the delayed hypersensitivity reaction to PPD in guinea pigs (n=6)

For assay [2], the system named is delayed contact sensitivity to oxazolone (increase of ear thickness). Nature of the assay: Delayed contact sensitivity to oxazolone in mice (Example A). As to conditions: for inhibition of increased ear thickness: 24 hours after challenge. The assay is classed as in vivo. The procedure:
This response is a measure of a cell-mediated immune response which is dependent on the activity of thymus-derived lymphocytes. Mice are sensitised with 100 μl of oxazolone and are subsequently challenged with 15 μl of 3% oxazolone on their right ears on day 7. The resulting cell-mediated response is measured 24 hours after challenge by assessing the increase of ear thickness using a dial gauge. The unchallenged left ears act as controls.

The next assay concerns rejection of skin grafts. The assay is described as follows: Rejection of tailskin grafts in mice, graft survival (Example B). It counts as in vivo, mice (CBA strain donors, Lac/a strain recipients). The procedure: The tailskin grafting method of Bailey and Usania (Transplantation Bulletin 7, 424-5, 1960) was used.
Sections of tailskin from donor CBA strain mice (agonti) were grafted onto the tails of 16 Lac/a strain mice (albino). Test compound was given from 2 days prior to grafting until graft loss at a dose of 50 mg/kg/day in 1% "Tween 80"/saline vehicle by the intraperitoneal route. Graft condition was assessed daily and mean graft survival time (days) of vehicle, and drug tested groups, was compared.

Turning to `COc1ccc2c(c1)sc1nc(N)nc(=Nc3ccccc3)n12` [Example 1, 2-Amino-8-methoxy-4-phenylimino-4H-1,3,5-triazino[2,1-b]benzothiazole], the entries for the “% Inhibition 24h after challenge: Diameter of erythema” value in assay [1] (1% in dimethylacetamide), in assay [1] (2% in dimethylacetamide) and in assay [1] (3% in dimethylacetamide) were 5%, 16% and 34%, respectively. Also, the “% Inhibition 24h after challenge: Erythema score” value in assay [1] (1% in dimethylacetamide) came to 20%; in assay [1] (2% in dimethylacetamide) it was 32%; in assay [1] (3% in dimethylacetamide) it was 63%. For the same compound, the entries for the “% Inhibition 24h after challenge: Increase in skin thickness” value in assay [1] (1% in dimethylacetamide), in assay [1] (2% in dimethylacetamide) and in assay [1] (3% in dimethylacetamide) were 20%, 35% and 50%, respectively. Besides, the “inhibition of the increase in skin thickness” value in assay [1] (1 to 3% in dimethylacetamide, 24 hours post challenge, result in words) was “dose dependent inhibition of the increase in skin thickness”. Moreover, the “reaction diameters and erythema scores” value in assay [1] (1 to 3% in dimethylacetamide, compared with dimethylacetamide controls, result in words) was “significantly reduced the reaction diameters and erythema scores”. Further, the “suppression of delayed hypersensitivity reaction” value in assay [1] (guinea pigs, dosed topically, result in words) is “suppress a delayed hypersensitivity reaction in guinea pigs”. In addition, the “inhibition of delayed contact sensitivity to oxazolone” value in assay [2] (mice, result in words) was “inhibit a delayed contact sensitivity to oxazolone in mice”. In addition, the “inhibition of increased ear thickness” value in assay [2] (single dose 50 mg/kg intraperitoneal on day 1 relative to sensitisation) was 44%; in assay [2] (single dose 50 mg/kg intraperitoneal on day 2 relative to sensitisation), 44%; in assay [2] (single dose 50 mg/kg intraperitoneal on day 3 relative to sensitisation), 49%; in assay [2] (single dose 50 mg/kg intraperitoneal on day 7 relative to sensitisation) it was 61%; in assay [2] (single dose 50 mg/kg intraperitoneal on one of days -1, 0, 1, 2, 3 or 7 relative to sensitisation, result in words), “inhibition of increased ear thickness”. Also, the “prolongation of skin graft survival” value in the assay on rejection of skin grafts (50 mg/kg/day intraperitoneal from 2 days prior to grafting until graft loss, versus vehicle, significant) is reported as 2.5 days. In addition, the “suppression of the rejection of skin grafts” value with rejection of skin grafts (mice, result in words) is on record as “suppress the rejection of skin grafts in mice”.
